# Paper PMC2375326, “In vitro evaluation of amino acid prodrugs of novel antitumour 2-(4-amino-3-methylphenyl)benzothiazoles” (British Journal of Cancer, 2002)
# What was measured:
# [1] = system: NCI in vitro panel of human derived cancer cell lines; assay: NCI in vitro cytotoxicity assay (SRB), whole panel mean graph; format: cell-based; details: average GI50 over the panel, 48 h exposure, sulforhodamine B assay, read-out: Log10 GI50 (MG_MID) (converted)
# Procedure: (§1) Cell culture and drug application procedures have been described previously ([Boyd and Paull, 1995]). Briefly, cell lines were inoculated into a series of 96-well microtiter plates, with varied seeding densities depending on growth characteristics of each cell line. Following a 24 h drug free incubation, test agents were added at five 10-fold dilutions with a maximum concentration of 100 μM. Cellular protein levels were determined after 48 h drug exposure by sulphorhodamine B colorimetry.
# NCI-H322M = assay: NCI in vitro cytotoxicity assay (SRB), NCI-H322M; format: cell-based; details: Homo sapiens, 48 h exposure, sulforhodamine B assay, mean graph, read-out: Log10 GI50 (NCI-H322M) (converted)
# Procedure: as §1
# MDA-MB-435 = assay: NCI in vitro cytotoxicity assay (SRB), MDA-MB-435; format: cell-based; details: Homo sapiens, 48 h exposure, sulforhodamine B assay, mean graph, read-out: Log10 GI50 (MDA-MB-435) (converted)
# Procedure: as §1
# BT-549 = assay: NCI in vitro cytotoxicity assay (SRB), BT-549; format: cell-based; details: Homo sapiens, 48 h exposure, sulforhodamine B assay, mean graph, read-out: Log10 GI50 (BT-549) (converted)
# Procedure: as §1
# LOX IMVI = assay: NCI in vitro cytotoxicity assay (SRB), LOX IMVI; format: cell-based; details: Homo sapiens, 48 h exposure, sulforhodamine B assay, mean graph, read-out: Log10 GI50 (LOX IMVI) (converted)
# Procedure: as §1
# SF-268 = assay: NCI in vitro cytotoxicity assay (SRB), SF-268; format: cell-based; details: Homo sapiens, 48 h exposure, sulforhodamine B assay, mean graph, read-out: Log10 GI50 (SF-268) (converted)
# Procedure: as §1
# UACC-257 = assay: NCI in vitro cytotoxicity assay (SRB), UACC-257; format: cell-based; details: Homo sapiens, 48 h exposure, sulforhodamine B assay, mean graph, read-out: Log10 GI50 (UACC-257) (converted)
# Procedure: as §1
# DU-145 = assay: NCI in vitro cytotoxicity assay (SRB), DU-145; format: cell-based; details: Homo sapiens, 48 h exposure, sulforhodamine B assay, mean graph, read-out: Log10 GI50 (DU-145) (converted)
# Procedure: as §1
# UACC-62 = assay: NCI in vitro cytotoxicity assay (SRB), UACC-62; format: cell-based; details: Homo sapiens, 48 h exposure, sulforhodamine B assay, mean graph, read-out: Log10 GI50 (UACC-62) (converted)
# Procedure: as §1
# CYP1A1 = target: T1, CYP1A1 (Homo sapiens, UniProt P04798); assay: Inhibition of recombinant CYP1A1 microsomal EROD activity; format: biochemical; details: microsomes expressing recombinant CYP1A1, pH 7.4, probe 7-ethoxyresorufin (100 μM); 30 μM agent; incubates without drug = 100% activity; mean of three, s.d. <10%; read-out: Microsomal CYP1A1 EROD activity (% control)
# T1 sequence (P04798 1-512): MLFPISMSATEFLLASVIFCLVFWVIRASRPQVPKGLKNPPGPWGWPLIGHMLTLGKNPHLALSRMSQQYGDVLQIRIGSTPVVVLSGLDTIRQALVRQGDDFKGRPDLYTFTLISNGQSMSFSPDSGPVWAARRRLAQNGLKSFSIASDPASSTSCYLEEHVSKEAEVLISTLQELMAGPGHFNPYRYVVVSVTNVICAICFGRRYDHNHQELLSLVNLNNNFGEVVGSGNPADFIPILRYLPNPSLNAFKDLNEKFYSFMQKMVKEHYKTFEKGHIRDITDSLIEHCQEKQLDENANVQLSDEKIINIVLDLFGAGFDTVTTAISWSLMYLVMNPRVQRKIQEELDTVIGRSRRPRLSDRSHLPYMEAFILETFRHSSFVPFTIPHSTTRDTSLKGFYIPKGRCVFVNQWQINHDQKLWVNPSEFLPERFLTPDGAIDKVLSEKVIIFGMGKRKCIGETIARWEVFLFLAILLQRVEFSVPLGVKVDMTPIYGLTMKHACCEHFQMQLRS
# Procedure: A sensitive and rapid fluorometric assay was used to measure EROD activity ([Burke et al, 1994]). Incubation mixtures (total 1 ml) consisted of 100 mM Tris-HCl (pH 7.4), 50 μM MgCl2, 100 μM 7-ethoxyresorufin and 100 μl cell homogenate. Homogenates were prepared following treatment of cells for 24 h with compounds 1, 2, 2a, 2b, 3, 3a, 3b, 4, 4a and 4b or vehicle alone and protein content determined (n=3). Thus induction of ethoxyresorufin O-deethylation by agents under study, catalysed by CYP1A1 activity, could be determined. Alternatively, microsomes expressing recombinant CYP1A1 (0.1 mg ml^−1) provided the enzyme source for EROD catalysis, in the presence or absence of drug, in order to determine inhibition of CYP1A1 activity by compounds 1, 2, 2a, 2b, 3, 3a, 3b, 4, 4a and 4b. Incubation mixtures were pre-incubated for 5 min at 37°C before initiation of reaction by addition of NADPH (500 μM). Following further incubations at 37°C (30 min for cell homogenates, 15 min for CYP1A1 microsomes), reactions were terminated by addition of 3 ml ice-cold acetonitrile. Reaction mixtures were centrifuged (1400 r.p.m., 10 min) before analyses of supernatants. Fluorescence was read on a Perkin-Elmer LS-5 luminescence spectrometer (excitation, 530 nm; emission 585 nm). Estimation of resorufin reaction product (pmoles mg^−1 protein, pmoles 100 μg^−1 microsomes), as a measure of CYP1A1 activity, was determined following performance of a resorufin standard curve.
# SK-MEL-28 = assay: NCI in vitro cytotoxicity assay (SRB), SK-MEL-28; format: cell-based; details: Homo sapiens, 48 h exposure, sulforhodamine B assay, mean graph, read-out: Log10 GI50 (SK-MEL-28) (converted)
# Procedure: as §1
# NCI/ADR-RES = assay: NCI in vitro cytotoxicity assay (SRB), NCI/ADR-RES; format: cell-based; details: Homo sapiens, 48 h exposure, sulforhodamine B assay, mean graph, read-out: Log10 GI50 (NCI/ADR-RES) (converted)
# Procedure: as §1
# SK-MEL-2 = assay: NCI in vitro cytotoxicity assay (SRB), SK-MEL-2; format: cell-based; details: Homo sapiens, 48 h exposure, sulforhodamine B assay, mean graph, read-out: Log10 GI50 (SK-MEL-2) (converted)
# Procedure: as §1
# K-562 = assay: NCI in vitro cytotoxicity assay (SRB), K-562; format: cell-based; details: Homo sapiens, K562; 48 h exposure, sulforhodamine B assay, mean graph; read-out: Log10 GI50 (K-562) (converted)
# Procedure: as §1
# OVCAR-5 = assay: NCI in vitro cytotoxicity assay (SRB), OVCAR-5; format: cell-based; details: Homo sapiens, 48 h exposure, sulforhodamine B assay, mean graph, read-out: Log10 GI50 (OVCAR-5) (converted)
# Procedure: as §1
# SK-MEL-5 = assay: NCI in vitro cytotoxicity assay (SRB), SK-MEL-5; format: cell-based; details: Homo sapiens, 48 h exposure, sulforhodamine B assay, mean graph, read-out: Log10 GI50 (SK-MEL-5) (converted)
# Procedure: as §1
"activity at 15 min, 30 μM (CYP1A1) [%]",SMILES,GI50 [1] [µM],GI50 (NCI-H322M) [µM],GI50 (MDA-MB-435) [µM],GI50 (BT-549) [µM],GI50 (LOX IMVI) [µM],GI50 (SF-268) [µM],GI50 (UACC-257) [µM],GI50 (DU-145) [µM],GI50 (UACC-62) [µM],GI50 (SK-MEL-28) [µM],GI50 (NCI/ADR-RES) [µM],GI50 (SK-MEL-2) [µM],GI50 (K-562) [µM],GI50 (OVCAR-5) [µM],GI50 (SK-MEL-5) [µM]
30.4,"Cc1cc(-c2nc3cc(F)ccc3s2)ccc1N [Compound 2, 2-(4-Amino-3-methylphenyl)-5-fluorobenzothiazole]",11,11,> 100,> 100,> 100,58.9,77.6,95.5,57.5,> 100,66.1,> 100,> 100,0.0107,> 100
38.5,Cc1cc(-c2nc3cc(F)ccc3s2)ccc1NC(=O)[C@@H](N)CCCCN [Compound 2b],2.51,3.09,1.91,14.1,2,6.76,15.8,16.2,14.1,22.4,15.1,2.51,2.29,0.126,15.5
